# Reference: US20120289492A1, “METHODS OF TREATING MITOCHONDRIAL DISORDERS USING METALLOPORPHYRINS” (priority 2009, published 2012)
# “Also recorded” adds a separate entry of the source.
# How the values were obtained:
# [1] = tested on: parietal cortex of Sod2−/− mice; experiment: Histochemical analyses (H&E, Fluoro-Jade B) of Sod2−/− mouse brain; type: in vivo
# [2] = tested on: forebrain of Sod2−/− mice; experiment: Mitochondrial oxidative stress and bioenergetic indices in brain of Sod2−/− mice; type: in vivo
# [3] = Ames' test (mutagenicity); type: cell-based
# Text: (§1) Safety profile: A prototypical metalloporphyrin (AEOL10150; FIG. 1) has completed phase 1 trials in amyotrophic lateral sclerosis patients. Extensive safety studies of this compound have been completed in mice, monkeys and rats. […] Safety studies for the structurally related compound, AEOL11207 need to be completed once its efficacy is established in animal studies.
# [4] = tested on: mitochondrial SOD activity; experiment: SOD2 activity assay in forebrain mitochondrial fractions; type: in vivo; details: treated Sod2−/− mice vs Sod2+/+ mice (1.56±0.17 units/mg protein)
# B6D2F2 Sod2−/− mice = experiment: Behavioral seizure evaluation and survival of Sod2−/− mice
# Text: The model utlizes cross-bred C57BL6XDBA2F2 (B6D2) mutant mice lacking manganese superoxide dismutase (MnSOD or Sod2), a critical mitochondrial antioxidant.
# Chronic Video Monitoring and Seizure Scoring: Sod2−/− mice and wild type littermates aged P7-˜P21 are digitally recorded 8 hrs/day in a custom designed plexiglass cage using a Q-See QD14B video monitoring system connected to a recordable DVD. DVD recordings are saved and reviewed by a trained observer blind to genotype and/or treatment for scoring of seizure severity, duration, and frequency. Seizure severity will be rated using the following scale: 1=immobilization & staring, 2=head-nodding, occasional forelimb clonic and tonic activity, 3=continuous forelimb clonic and tonic activity, 4=generalized seizures with falling, running and jumping.
# The mutant mice were monitored on a daily basis to get an accurate birth and death data. Pups were not culled or handled before P5 to avoid maternal rejection.
# Metalloporphyrin (AEOL11207) administration B6D2F1 Sod2−/− mice and their wild-type littermates (control mice) were treated with AEOL11207 (5 mg/kg) or vehicle by subcutaneous (s.c.) injection daily starting at 5 days of age until death or being sacrificed. AEOL11207 was dissolved in dimethyl sulfoxide (DMSO) and diluted with sterilized phosphate buffered saline (PBS) to achieve the desired final concentration (1% DMSO). The control animals were injected with sterilized PBS containing 1% DMSO. The animals were divided into four different groups: 1) control mice +vehicle; 2) B6D2F1 Sod2−/− mice+vehicle; 3) control mice +AEOL11207; 4) B6D2F1 Sod2−/− mice +AEOL11207. The treated and untreated mice were sacrificed at 15-16 days old for pathology and biochemistry assays or until death for survival and seize behavioral evaluation.
# During the weaning period (P15-P18) mice were recorded in the presence of their mothers, and individually thereafter. Video was digitally recorded (Panasonic DMR-ES 15) and stored on DVD-R′s for observation and quantification of seizure number, duration, frequency, and severity by an observer blind to treatments. Seizure severity was scored according to the following scale: 1=immobilization and staring, 2=head-nodding, shaking, 3=forelimb tonic/clonic activity, 4=continuous forelimb tonic/clonic activity with falling, running or jumping. Due to the presence of abnormal gait and posturing in Sod2^−/− mice, only spontaneous motor seizures with scores>3 were included for comparison between groups. The scoring and analysis was conducted by an investigator blinded to genotype and treatment.
# Statistical analyses Survival analysis was performed using the Kaplan-Meier method. […] P values less than 0.05 were considered significant.
# [5] = Scavenging of reactive oxygen species in cell-free systems and isolated mitochondria; type: biochemical
# [6] = tested on: 1-methyl-4-phenyl-1,2,3,6-tetrahydropyridine (MPTP) neurotoxicity; details: oral administration; cited from earlier work
# [7] = tested on: forebrain of Sod2−/− mice; experiment: Mitochondrial oxidative stress and bioenergetic indices in brain of Sod2−/− mice; type: in vivo; remark: listed apart in the source
# Procedure: To determine whether AEOL11207 decreases mitochondrial dysfunction and corrects key bioenergetic parameters in Sod2−/− mice, activity was measured of the oxidant sensitive mitochondrial enzyme, aconitase and oxidant insensitive control, fumarase, ATP, 3-nitrotyrosine (3NT), a marker of oxidative damage to proteins, reduced coenzyme A (CoASH) which assesses the mitochondrial redox state and the activity of the sodium potassium ATPase (Na+-K+ ATPase). […] FIGS. 5A-5EC illustrate attenuation of aconitase inactivation (5A), ATP depletion (5B), 3NT formation ([…]), CoASH depletion (5D) and decreased Na+-K+ ATPase activity (5E) in Sod2−/− mice by AEOL11207 (5 mg/kg, s.c. beginning PND5, n=*p<0.05, #p<0.01).
# Methods:3-nitrotyrosine (3-NT) measurement by HPLC 3-NT assay are performed with HPLC equipped electrochemical detector using methods as previously described in the literature. The potentials of the electrochemical detector are set at 180/240/350/500/600/670/810/830 mV. Analyte separation is conducted on a TOSOHAAS (Montgomeryville, Pa.) reverse-phase ODS 80-TM C-18 analytical column (4.6 mm×[…]; 5 µm particle size). A two-component gradient elution system was used with component A of the mobile phase composed of 50 mM sodium acetate pH 3.2, and component B composed of 50mM sodium acetate and 40% methanol. The following gradient elution profile was used: 0-25 min, 100% A; 25-35 min, linear ramp to 50% B; 35-40 min, isocratic 50% B; 40-45 min, linear ramp to 100% A; 45-50 min, isocratic 100% A at a flow rate of 0.6 ml/min. 3-NT was expressed as a ratio of 3-NT to tyrosine.
# Measurement of AMP, ADP and ATP: The levels of AMP, ADP and ATP are quantified by HPLC-UV set at 258 nm following previous described. Analyte are separated by […], […] C-18 reversed-phase column. Mobile phase is composed of 50 mM KH2PO4, 10% methanol, 3 mM TBAS and adjusted to pH 6.0 and flow rate set at 0.8 ml/min.
# Aconitase and fumarase activity assay: Aconitase and fumarase activity are measured in mitochondrial fraction which isolated as previously described. Briefly, brain tissues are homogenized with a Dounce tissue grinder (Wheaton, Millville, N.J.) in ice-cold mitochondrial isolation buffer (70 mM sucrose, 210 mM mannitol, 5 mM Tris HCl, 1 mM EDTA pH 7.4). After homogenization, the suspensions are centrifuged at 800 g for 10 minutes at 4° C., and the supernatants centrifuged at 17,000 g for 10 minutes at 4° C. The pellets are washed by mitochondrial isolation buffer and centrifuged at 17,000 g for 10 minutes at 4° C. again. Aconitase activity is measured spectrophotometrically following previous described by monitoring the formation of cis-aconitate from isocitrate at 240 nm in 50 mM Tris HCl, pH 7.4, containing 0.6 mM MnCl2 at 25° C. Fumarase activity is measured by monitoring the increase in absorbance at 240 nm at 25° C. in a 1 ml reaction mixture containing 30 mM potassium phosphate, pH 7.4, 0.1 mM L-malate.
# Isolation mitochondrial fraction Mitochondria were isolated from the forebrain of mice according to the previously described methods (Liang & Patel, (2006) Free Radic Biol Med 40, 316-22). In brief, the forebrain was homogenized with a Dounce tissue grinder (Wheaton, Millville, N.J.) in mitochondrial isolation buffer (70 mM sucrose, 210 mM mannitol, 5 mM Tris HCl, 1 mM EDTA; pH 7.4). The suspensions centrifuged at 800 g 4° C. for 10 min. The supernatants were centrifuged at 13000 g 4° C. for 10 min., pellets washed with mitochondrial isolation buffer and centrifuged at 13000 g 4° C. for 10 min. to obtain crude mitochondrial fractions. The purity of mitochondrial fractions has been confined by immunoblot analysis of cytochrome c oxidase (COX) (EC1.9.3.1) subunit IV and lactate dehydrogenase (LDH) (EC 1.1.1.27) in mitochondrial and cytosolic fractions. There is no mitochondria contamination in cytosolic fraction and about 5-10% cytosol contamination in mitochondrial fraction (Liang & Patel, (2006) Free Radic Biol Med 40, 316-22). […]
# mouse lymphoma = experiment: Mouse lymphoma test (mutagenicity); type: cell-based
# Text: as §1
# Wild-type mice = experiment: Tolerability in wild-type mice; type: in vivo; details: 5 mg/kg daily, up to 20 days of treatment
# [8] = tested on: paraquat (PQ2+)-induced cell injury; experiment: Paraquat (PQ2+)-induced cell injury assay; type: cell-based; details: data not shown
# [9] = forebrain mitochondrial fraction of Sod2−/− mice
# [10] = Sod2−/− mice, 5 mg/kg s.c. daily from P5, vs vehicle, 5 mg/kg
# [11] = Sod2−/− mice, 5 mg/kg s.c. from PND5
structure (smiles),measurement,setting,value
COC(=O)c1c2nc(c(C(F)(F)F)c3ccc([n-]3)c(C(=O)OC)c3nc(c(C(F)(F)F)c4ccc1[n-]4)C=C3)C=C2.[Cl-].[Mn+3] [AEOL11207],Histopathological damage including vacuole size and number,"[1]; H&E staining, Sod2−/− mice P15-16",decreased
same,neuronal degeneration (Fluoro-Jade B staining),[1]; compared to vehicle treatment,Significant protection
same,attenuation of Fluoro-Jade B relative fluorescence density,"[1]; parietal cortex of Sod2−/− mice, compared to vehicle treatment",~50%
same,depletion of ascorbate,[2]; brains of Sod2−/− mice,significantly attenuated
same,depletion of glutathione,[2]; brains of Sod2−/− mice,significantly attenuated
same,decrease in cysteine,[2]; [9],significantly attenuated
same,decrease in methionine,[2]; [9],significantly attenuated
same,increased CoASSG,"[2]; forebrain of Sod2−/− mice, 15-16 days old",significantly attenuated
same,decrease in glutamate transporter GLT-1 expression,"[2]; hippocampus of Sod2−/− mice, Western blot",significantly attenuated
same,"mutagenicity, Ames' test",[3],negative
same,Cyanide insensitive SOD activity compared to Sod2+/+ mice,[4],~40%
same,Sod2−/− mice surviving beyond 15 days old,"B6D2F2 Sod2−/− mice; 5 mg/kg daily, vehicle ~48%",all
same,Sod2−/− mice exhibiting spontaneous tonic-clonic seizures,"B6D2F2 Sod2−/− mice; P15-P20, daily observation, all vehicle-treated mice",37%
same,frequency of spontaneous behavioral seizures,B6D2F2 Sod2−/− mice; [10],significantly decreased; also recorded: decrease; also recorded: significantly attenuates
same,seizure severity,B6D2F2 Sod2−/− mice; [10],but not seizure duration or severity; also recorded: no significant changes
same,total number of spontaneous behavioral seizures,B6D2F2 Sod2−/− mice; [10],decrease; also recorded: significantly attenuates
same,average lifespan,"B6D2F2 Sod2−/− mice; Sod2−/− mice, 5 mg/kg s.c. daily starting at 5 days of age, 5 mg/kg",20.33 ± 2.00 days
same,average lifespan,"B6D2F2 Sod2−/− mice; Sod2−/− mice, 5 mg/kg s.c. daily starting at 5 days of age, listed as AEOL 11207, 5 mg/kg",20.383 ± 0.43 days
same,average lifespan,"B6D2F2 Sod2−/− mice; Sod2−/− mice, daily treatment 2.5 mg/kg",no significant increase
same,behavioral seizure characteristics / seizure parameters,"B6D2F2 Sod2−/− mice; Sod2−/− mice, s.c. from postnatal day 5",attenuates; also recorded: significantly attenuated; also recorded: ameliorates
same,"scavenging of mitochondrial O2-, H2O2 and lipid peroxides",[5],catalytically scavenges
same,protection against MPTP neurotoxicity,[6],protected
same,decreased CoASH levels,[7]; [11],significantly attenuated
same,increase in 3-nitrotyrosine (3NT) formation,[7]; [11],significantly attenuated
same,attenuation of the depletion of ATP,"[7]; forebrain homogenates of Sod2−/− mice, 15-16 days old",50%
same,decreased Na+-K+ ATPase activity,"[7]; forebrain homogenates, Sod2−/− mice, 5 mg/kg s.c. from PND5, 5 mg/kg",significantly attenuated; also recorded: significantly restored
same,decrease in ATP levels (ATP depletion),"[7]; forebrain, Sod2−/− mice, 5 mg/kg s.c. from PND5",significantly attenuated
same,decrease in aconitase activity (aconitase inactivation),"[7]; mitochondrial fractions, Sod2−/− mice, 5 mg/kg s.c. from PND5",significantly attenuated
same,"mutagenicity, mouse lymphoma test",mouse lymphoma,negative
same,ill effects,Wild-type mice,no ill effects
same,mortality,Wild-type mice,no mortality
same,protective range,[8],30 to 100 nM
